Assay in all cases: Upstate KinaseProfiler radio-enzymatic filter binding assay
What all share (type): biochemical

One test deals with T1, c-RAF (Homo sapiens, UniProt P04049).
T1 construct: purchased Upstate
Particulars: at a concentration of 10 μM; read-out: percentage inhibition of c-RAF. On the procedure:
(§1) Compounds of the invention are assessed for their ability to inhibit individual members of the kinase panel. The compounds are tested in duplicates at a final concentration of 10 μM following this generic protocol. Note that the kinase buffer composition and the substrates vary for the different kinases included in the “Upstate KinaseProfiler™” panel. Kinase buffer (2.5 μL, 10×—containing MnCl2 when required), active kinase (0.001-0.01 Units; 2.5 μL), specific or Poly(Glu4-Tyr) peptide (5-500 μM or 0.01 mg/ml) in kinase buffer and kinase buffer (50 μM; 5 μL) are mixed in an eppendorf on ice, A Mg/ATP mix (10 μL; 67.5 (or 33.75) mM MgCl2, 450 (or 225) μM ATP and 1 μCi/μl [γ-^32P]-ATP (3000 Ci/mmol)) is added and the reaction is incubated at about 30° C. for about 10 minutes. The reaction mixture is spotted (20 μL) onto a 2 cm×2 cm P81 (phosphocellulose, for positively charged peptide substrates) or Whatman No. 1 (for Poly (Glu4-Tyr) peptide substrate) paper square. The assay squares are washed 4 times, for 5 minutes each, with 0.75% phosphoric acid and washed once with acetone for 5 minutes. The assay squares are transferred to a scintillation vial, 5 ml scintillation cocktail are added and ^32P incorporation (cpm) to the peptide substrate is quantified with a Beckman scintillation counter. Percentage inhibition is calculated for each reaction.

The next test concerns the target T2, wild-type Abl (Homo sapiens, UniProt P00519).
T2 construct: purchased Upstate
Particulars: at a concentration of 10 μM; read-out: percentage inhibition of wild-type Abl. On the procedure:
as §1

The next test deals with T3, JNK2α2 (Homo sapiens, UniProt P45984).
T3 construct: purchased Upstate
The following applies: at a concentration of 10 μM; read-out: percentage inhibition of JNK2α2. On the procedure: as §1

The target of another test is T4, TrkB (Homo sapiens, UniProt Q16620).
T4 construct: purchased Upstate
T4 sequence (Q16620 32-822): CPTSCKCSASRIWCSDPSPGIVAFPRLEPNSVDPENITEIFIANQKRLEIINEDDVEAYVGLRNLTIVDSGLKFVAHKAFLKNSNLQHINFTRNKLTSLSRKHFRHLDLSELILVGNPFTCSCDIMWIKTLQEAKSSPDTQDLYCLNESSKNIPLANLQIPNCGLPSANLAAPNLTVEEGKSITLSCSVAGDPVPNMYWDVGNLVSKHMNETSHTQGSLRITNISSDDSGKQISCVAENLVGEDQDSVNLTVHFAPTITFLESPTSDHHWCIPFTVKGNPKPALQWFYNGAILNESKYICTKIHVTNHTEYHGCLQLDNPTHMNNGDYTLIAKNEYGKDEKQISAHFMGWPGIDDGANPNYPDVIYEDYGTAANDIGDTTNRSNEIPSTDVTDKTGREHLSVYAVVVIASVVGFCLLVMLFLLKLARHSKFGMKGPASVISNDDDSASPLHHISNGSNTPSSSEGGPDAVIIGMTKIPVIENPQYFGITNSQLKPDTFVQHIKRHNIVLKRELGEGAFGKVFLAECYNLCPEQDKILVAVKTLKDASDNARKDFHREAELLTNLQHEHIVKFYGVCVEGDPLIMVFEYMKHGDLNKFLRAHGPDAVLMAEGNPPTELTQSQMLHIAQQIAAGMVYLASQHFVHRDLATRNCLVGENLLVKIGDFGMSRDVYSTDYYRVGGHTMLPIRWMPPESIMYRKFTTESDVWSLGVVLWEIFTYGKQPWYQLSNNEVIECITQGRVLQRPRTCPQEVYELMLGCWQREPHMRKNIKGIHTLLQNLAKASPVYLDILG
The following applies: at a concentration of 10 μM; read-out: percentage inhibition of TrkB. On the procedure: as §1

The next test concerns the target T5, PDGFRα (Homo sapiens, UniProt P16234).
T5 construct: purchased Upstate
The following applies: at a concentration of 10 μM; read-out: percentage inhibition of PDGFRα. The procedure: as §1

The target in a further test is T6, SAPK2β (Homo sapiens, UniProt Q15759).
T6 construct: purchased Upstate
Particulars: at a concentration of 10 μM; read-out: percentage inhibition of SAPK2β. The procedure: as §1

In the next test the target is T7, SAPK2α (Homo sapiens, UniProt Q16539).
T7 construct: purchased Upstate
T7 sequence (Q16539 whole entry): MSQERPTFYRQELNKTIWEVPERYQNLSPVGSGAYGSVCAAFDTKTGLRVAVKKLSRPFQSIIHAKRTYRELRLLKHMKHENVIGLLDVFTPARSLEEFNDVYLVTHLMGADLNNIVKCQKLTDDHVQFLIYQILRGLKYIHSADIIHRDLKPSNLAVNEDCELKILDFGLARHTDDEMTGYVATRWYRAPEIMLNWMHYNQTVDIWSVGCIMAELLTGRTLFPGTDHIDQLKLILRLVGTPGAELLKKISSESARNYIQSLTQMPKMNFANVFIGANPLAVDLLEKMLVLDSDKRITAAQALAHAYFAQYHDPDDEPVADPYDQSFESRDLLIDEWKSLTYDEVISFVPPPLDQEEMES
The following applies: at a concentration of 10 μM; read-out: percentage inhibition of SAPK2α. The procedure:
as §1

For another test, the target named is T8, Tie2 (Homo sapiens, UniProt Q02763).
T8 construct: purchased Upstate
T8 sequence (Q02763 23-1124): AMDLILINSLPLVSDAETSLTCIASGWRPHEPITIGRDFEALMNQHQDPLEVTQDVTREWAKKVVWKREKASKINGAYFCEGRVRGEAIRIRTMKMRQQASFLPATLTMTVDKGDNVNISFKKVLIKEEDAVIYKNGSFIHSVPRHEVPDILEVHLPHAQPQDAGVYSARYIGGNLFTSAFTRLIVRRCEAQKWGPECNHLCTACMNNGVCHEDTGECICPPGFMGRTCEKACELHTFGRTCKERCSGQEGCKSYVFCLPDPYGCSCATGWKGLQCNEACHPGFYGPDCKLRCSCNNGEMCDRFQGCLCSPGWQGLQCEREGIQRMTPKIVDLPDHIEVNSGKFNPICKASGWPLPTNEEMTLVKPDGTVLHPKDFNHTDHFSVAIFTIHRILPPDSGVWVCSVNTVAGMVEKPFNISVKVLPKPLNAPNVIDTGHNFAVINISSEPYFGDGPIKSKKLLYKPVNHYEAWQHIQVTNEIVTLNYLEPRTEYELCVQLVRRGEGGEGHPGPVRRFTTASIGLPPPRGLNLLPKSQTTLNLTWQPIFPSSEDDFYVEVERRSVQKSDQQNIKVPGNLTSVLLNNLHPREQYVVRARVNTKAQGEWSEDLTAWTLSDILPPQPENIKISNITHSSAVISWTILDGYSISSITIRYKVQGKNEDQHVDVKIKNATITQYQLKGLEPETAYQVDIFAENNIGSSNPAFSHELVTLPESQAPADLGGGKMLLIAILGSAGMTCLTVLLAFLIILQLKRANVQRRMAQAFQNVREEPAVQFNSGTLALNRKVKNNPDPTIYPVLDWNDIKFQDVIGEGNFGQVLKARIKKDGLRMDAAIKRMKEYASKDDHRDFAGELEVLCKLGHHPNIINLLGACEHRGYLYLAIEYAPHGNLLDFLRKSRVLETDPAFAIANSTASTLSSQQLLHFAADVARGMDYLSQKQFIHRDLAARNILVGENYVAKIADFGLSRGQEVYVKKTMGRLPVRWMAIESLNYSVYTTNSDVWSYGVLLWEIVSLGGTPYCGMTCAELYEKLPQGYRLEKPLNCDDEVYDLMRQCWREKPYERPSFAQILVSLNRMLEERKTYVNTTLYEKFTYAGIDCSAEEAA
Particulars: at a concentration of 10 μM; read-out: percentage inhibition of Tie2. The procedure: as §1

Another test concerns the target T9, lck (Homo sapiens, UniProt P06239).
T9 construct: purchased Upstate
The following applies: at a concentration of 10 μM; read-out: percentage inhibition of lck. The procedure: as §1

Another test has as its target T10, MKK6 (Homo sapiens, UniProt P52564).
T10 construct: purchased Upstate
T10 sequence (P52564 1-334): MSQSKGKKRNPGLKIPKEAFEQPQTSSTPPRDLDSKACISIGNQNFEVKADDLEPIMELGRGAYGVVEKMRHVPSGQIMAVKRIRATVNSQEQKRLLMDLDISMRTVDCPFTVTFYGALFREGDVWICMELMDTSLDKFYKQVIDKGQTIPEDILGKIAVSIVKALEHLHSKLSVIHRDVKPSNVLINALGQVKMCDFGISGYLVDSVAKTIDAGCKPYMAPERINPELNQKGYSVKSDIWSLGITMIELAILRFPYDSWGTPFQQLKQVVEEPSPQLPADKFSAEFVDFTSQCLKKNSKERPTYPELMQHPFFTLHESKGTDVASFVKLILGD
The following applies: at a concentration of 10 μM; read-out: percentage inhibition of MKK6. The procedure:
as §1

Another test addresses T11, c-SRC (Homo sapiens, UniProt P12931).
T11 construct: purchased Upstate
Particulars: at a concentration of 10 μM; read-out: percentage inhibition of c-SRC. The procedure:
as §1

Structures are written as SMILES.

T9 sequence (P06239 whole entry): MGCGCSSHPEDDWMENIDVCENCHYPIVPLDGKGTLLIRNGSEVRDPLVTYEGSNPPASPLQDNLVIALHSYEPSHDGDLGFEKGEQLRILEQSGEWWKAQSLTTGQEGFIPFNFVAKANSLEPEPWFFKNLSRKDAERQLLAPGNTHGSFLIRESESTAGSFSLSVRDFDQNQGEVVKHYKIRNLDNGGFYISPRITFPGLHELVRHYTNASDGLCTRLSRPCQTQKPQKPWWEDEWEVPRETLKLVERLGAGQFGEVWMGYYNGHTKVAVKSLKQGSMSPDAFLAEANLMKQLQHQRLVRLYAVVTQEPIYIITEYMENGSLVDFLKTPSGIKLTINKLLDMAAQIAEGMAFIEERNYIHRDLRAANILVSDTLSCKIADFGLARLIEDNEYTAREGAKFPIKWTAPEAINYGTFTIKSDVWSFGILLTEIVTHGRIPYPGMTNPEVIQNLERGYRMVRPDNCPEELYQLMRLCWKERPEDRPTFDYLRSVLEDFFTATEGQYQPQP
T2 sequence (P00519 whole entry, species assumed): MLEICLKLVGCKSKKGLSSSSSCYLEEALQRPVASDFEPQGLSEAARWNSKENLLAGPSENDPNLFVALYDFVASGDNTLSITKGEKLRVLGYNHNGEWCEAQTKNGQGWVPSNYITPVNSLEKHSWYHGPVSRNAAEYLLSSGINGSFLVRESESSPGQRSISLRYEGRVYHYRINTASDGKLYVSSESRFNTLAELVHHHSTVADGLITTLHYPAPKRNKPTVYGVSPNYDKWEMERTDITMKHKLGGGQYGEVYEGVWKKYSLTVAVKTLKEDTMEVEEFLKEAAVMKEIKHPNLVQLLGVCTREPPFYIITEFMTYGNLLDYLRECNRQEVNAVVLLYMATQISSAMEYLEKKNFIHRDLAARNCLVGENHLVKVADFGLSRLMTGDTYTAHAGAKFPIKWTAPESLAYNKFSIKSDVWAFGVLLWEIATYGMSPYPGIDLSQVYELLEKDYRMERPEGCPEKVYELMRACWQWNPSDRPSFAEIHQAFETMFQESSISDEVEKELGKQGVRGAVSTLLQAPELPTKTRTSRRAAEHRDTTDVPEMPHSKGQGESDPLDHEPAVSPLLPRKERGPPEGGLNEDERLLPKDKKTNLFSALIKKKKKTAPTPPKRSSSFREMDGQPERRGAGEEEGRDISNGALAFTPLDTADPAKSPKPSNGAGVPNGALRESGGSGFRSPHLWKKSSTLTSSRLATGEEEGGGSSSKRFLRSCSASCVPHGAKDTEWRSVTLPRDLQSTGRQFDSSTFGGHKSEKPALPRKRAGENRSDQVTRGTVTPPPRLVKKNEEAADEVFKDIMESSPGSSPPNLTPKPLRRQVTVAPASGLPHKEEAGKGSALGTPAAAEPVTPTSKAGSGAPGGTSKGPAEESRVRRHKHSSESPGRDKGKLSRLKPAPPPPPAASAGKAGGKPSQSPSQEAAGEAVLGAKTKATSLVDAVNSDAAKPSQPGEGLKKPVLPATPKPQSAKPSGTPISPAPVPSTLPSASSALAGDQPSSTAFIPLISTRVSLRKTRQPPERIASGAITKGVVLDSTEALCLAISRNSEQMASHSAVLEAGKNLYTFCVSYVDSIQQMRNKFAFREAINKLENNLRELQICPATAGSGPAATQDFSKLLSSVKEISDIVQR
T1 sequence (P04049 whole entry): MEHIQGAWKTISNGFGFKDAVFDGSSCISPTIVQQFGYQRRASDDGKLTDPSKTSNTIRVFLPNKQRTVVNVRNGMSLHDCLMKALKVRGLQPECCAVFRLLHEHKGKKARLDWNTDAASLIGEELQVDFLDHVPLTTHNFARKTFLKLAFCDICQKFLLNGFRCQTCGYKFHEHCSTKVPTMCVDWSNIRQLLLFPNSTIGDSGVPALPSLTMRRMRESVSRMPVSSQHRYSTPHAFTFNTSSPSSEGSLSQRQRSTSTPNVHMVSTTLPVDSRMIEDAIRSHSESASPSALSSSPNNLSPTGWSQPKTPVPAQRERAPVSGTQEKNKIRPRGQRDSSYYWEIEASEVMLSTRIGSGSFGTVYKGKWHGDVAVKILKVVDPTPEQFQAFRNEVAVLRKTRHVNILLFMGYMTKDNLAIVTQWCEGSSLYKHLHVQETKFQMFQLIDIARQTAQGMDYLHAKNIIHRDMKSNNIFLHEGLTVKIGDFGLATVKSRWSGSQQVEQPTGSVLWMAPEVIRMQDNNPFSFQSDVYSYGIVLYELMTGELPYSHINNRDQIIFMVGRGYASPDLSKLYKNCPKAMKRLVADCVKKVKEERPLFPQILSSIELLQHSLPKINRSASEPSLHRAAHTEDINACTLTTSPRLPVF
T11 sequence (P12931 whole entry): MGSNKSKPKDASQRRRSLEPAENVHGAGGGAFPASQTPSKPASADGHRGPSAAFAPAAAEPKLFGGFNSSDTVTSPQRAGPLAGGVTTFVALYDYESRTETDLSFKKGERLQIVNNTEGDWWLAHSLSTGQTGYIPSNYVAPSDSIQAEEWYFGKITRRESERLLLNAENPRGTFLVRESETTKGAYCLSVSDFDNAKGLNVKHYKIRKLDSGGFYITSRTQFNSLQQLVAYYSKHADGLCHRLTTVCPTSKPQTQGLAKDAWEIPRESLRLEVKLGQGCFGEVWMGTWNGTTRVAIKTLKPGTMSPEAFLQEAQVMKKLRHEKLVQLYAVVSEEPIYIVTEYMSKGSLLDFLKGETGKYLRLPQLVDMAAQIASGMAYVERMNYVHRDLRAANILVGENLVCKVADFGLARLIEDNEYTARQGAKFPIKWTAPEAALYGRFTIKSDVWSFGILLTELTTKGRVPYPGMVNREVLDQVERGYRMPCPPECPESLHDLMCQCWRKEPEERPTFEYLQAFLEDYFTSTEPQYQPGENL

For `Cc1ccc(NC(=O)c2cccc(C(F)(F)F)c2)cc1Nc1nccn1-c1cc(NCCN2CCOCC2)ncn1` [Compound 3, N-(4-Methyl-3-{1-[6-(2-morpholin-4-yl-ethylamino)-pyrimidin-4-yl]-1H-imidazol-2-ylamino}-phenyl)-3-trifluoromethyl-benzamide], the inhibition (commonly the change of the read-out against control, counted positive when it falls) at 10 µM on c-RAF is 100%; at wild-type Abl it was 97%; on JNK2α2, 97%; on TrkB it was 97%; on PDGFRα, 97%; at SAPK2β, 100%. In addition, the inhibition at 10 µM at SAPK2α is 100%; on Tie2 it was 99%; on lck, 100%; on MKK6 it was 100%; on c-SRC it was 99%.

Values taken from patent US7745437B2, “Compounds and compositions as protein kinase inhibitors” (IRM LLC, priority 2004, dated 2010).
